# Several values for one entry are separate records, joined by “and”; a condition that tells them apart may be missing. Identical values can stand only once. Where no end group is shown, it is not given here.
# Target: T1, PTHR1 (Homo sapiens, UniProt Q03431)
# T1 sequence (Q03431 27-593): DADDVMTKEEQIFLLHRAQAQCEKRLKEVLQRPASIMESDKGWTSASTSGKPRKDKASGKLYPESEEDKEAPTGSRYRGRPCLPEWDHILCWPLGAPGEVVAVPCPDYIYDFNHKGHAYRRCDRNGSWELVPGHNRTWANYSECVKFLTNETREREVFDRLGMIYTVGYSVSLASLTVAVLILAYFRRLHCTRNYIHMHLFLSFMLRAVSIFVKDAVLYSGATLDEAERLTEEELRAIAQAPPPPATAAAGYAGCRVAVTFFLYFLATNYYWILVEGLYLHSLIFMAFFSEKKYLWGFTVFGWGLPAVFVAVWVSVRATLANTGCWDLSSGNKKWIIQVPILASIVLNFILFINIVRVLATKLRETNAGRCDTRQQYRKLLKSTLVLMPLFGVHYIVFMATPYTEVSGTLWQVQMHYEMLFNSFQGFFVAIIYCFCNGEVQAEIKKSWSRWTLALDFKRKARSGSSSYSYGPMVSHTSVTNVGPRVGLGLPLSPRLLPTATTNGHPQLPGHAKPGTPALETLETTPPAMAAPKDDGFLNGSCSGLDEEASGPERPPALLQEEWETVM
# Assay: cAMP accumulation assay (HTRF) in CHO-K1/Ga15/PTHR1 cells
# Type: cell-based
# Design: host or cells: CHO-K1 (recombinant line CHO-K1/Ga15/PTHR1)
# Settings: FIG. 3; PTH 1-34 positive control
# Method: Cell suspension (5 μL) was seeded in 384-well plates at a density of 3,000 cells/well. Cells were treated with test samples (5 μL) or agonist (PTH 1-34) for 30 minutes at room temperature. cAMP-d2 working solution (5 μL) and anti-cAMP-Cryptate working solution (5 μL) were added to cells and incubated for 60 minutes at room temperature. The signal of the assay plate was read with PheraStar (BMG LABTECH, NC), an HTRF compatible reader.
row,Sequence,cAMP accumulation activity compared to control peptide
1,AVAEIQLMHQRAKWSLREELEKLLKELLKEYI [Peptide R2-44],increased activity as compared to the control peptide

# Same assay, conditions: cAMP accumulation, fitted curve slope; replicate plates
row,−log10Slope,Sequence
1,−7.566,AVAEIQLMHQRAKWELLEELLKILLELLKEYI [Peptide R2-38]
2,−5.52,AVAEIQLMHQRAKWGLDLELAVKLQEILKDVL [Peptide R2-28]
3,−0.697,AVAEIQLMHQRAKWGLDLELRARLREILRDVY [Peptide R2-31]
4,−14.6415,AVAEIQLMHQRAKWGLELELKEKLRKILEDVY [Peptide R2-26]
5,−5.23,"AVAEIQLMHQRAKWIQDARRRAFLHKLIAEIH [LA-PM-FL, reference compound]"
6,−18.1852,AVAEIQLMHQRAKWLEELKLKDDLRKILEDVY [Peptide R2-30]
7,−17.9495,AVAEIQLMHQRAKWLNELRLKEEMRKILEDVY [Peptide R2-33]
8,−11.9049,AVAEIQLMHQRAKWRLEIELLKKLKEILKDVY [Peptide R2-34]
9,0.4711,AVAEIQLMHQRAKWSLREELEKLLKELLKEYI [Peptide R2-44]
10,−3.312,GIAVITLMDLRAYLRAEYELREMLLRLLEEIF [Peptide R2-13]

# Same assay, conditions: cAMP accumulation; replicate plates; read-out: −log10EC50 (converted)
row,EC50 [nM],Sequence
1,124,AVAEIQLMHQRAKWELLEELLKILLELLKEYI [Peptide R2-38]
2,92.4,AVAEIQLMHQRAKWGLDLELAVKLQEILKDVL [Peptide R2-28]
3,84.5,AVAEIQLMHQRAKWGLELELKEKLRKILEDVY [Peptide R2-26]
4,13.1,"AVAEIQLMHQRAKWIQDARRRAFLHKLIAEIH [LA-PM-FL, reference compound]"
5,80,AVAEIQLMHQRAKWLEELKLKDDLRKILEDVY [Peptide R2-30]
6,80.1,AVAEIQLMHQRAKWLNELRLKEEMRKILEDVY [Peptide R2-33]
7,106,AVAEIQLMHQRAKWRLEIELLKKLKEILKDVY [Peptide R2-34]
8,0.0365,AVAEIQLMHQRAKWSLREELEKLLKELLKEYI [Peptide R2-44]
9,4870,GIAVITLMDLRAYLRAEYELREMLLRLLEEIF [Peptide R2-13]

# Same assay, conditions: relative to PTH [1-34]; CHO-K1/Ga15/PTHR1 cells
row,cAMP,Sequence
1,++,AVAEIQLMHQRAKWSLREELEKLLKELLKEYI [Peptide R2-44]

# Target: T1, PTHR1
# Assay: β-arrestin2 recruitment BRET assay in transfected HEK293T cells
# Type: cell-based
# Design: Flag (N); Life Technologies Corporation, CA (arrestin cDNA); host or cells: HEK293T (CRL-3216, ATCC)
# Settings: FIG. 2; PTH 1-34 positive control
# Method: (§1) 18-24 hours post transfection, the Luciferase substrate Coelenterazine (NanoLight Technologies, AZ) was added to cells, a baseline BRET measurement was taken after 5 minutes incubation, and then serial dilutions of peptides, diluted in PBS (with 0.5 mM MgCl2+0.1% BSA FAF), were added to cells, and BRET signal was measured every 2 minutes for 30 minutes on Hybrid Multi-Mode Reader (Synergy Neo2, BioTek, VT). Seventy-five peptides were tested in the β-arrestin recruitment assay.
row,β-arrestin2 assay activity compared to control peptide,Sequence
1,activity similar to the control peptide,AVAEIQLMHQRAKWGLDLELRARLREILRDVY [Peptide R2-31]
2,activity similar to the control peptide,AVAEIQLMHQRAKWLEELKLKDDLRKILEDVY [Peptide R2-30]
3,activity similar to the control peptide,AVAEIQLMHQRAKWLNELRLKEEMRKILEDVY [Peptide R2-33]
4,activity similar to the control peptide,AVAEIQLMHQRAKWRLEIELLKKLKEILKDVY [Peptide R2-34]

row,Sequence,β-arrestin2 assay activity compared to control peptide
1,"AVAEIQLMHQRAKWIQDARRRAFLHKLIAEIH [LA-PM-FL, reference compound]",increased activity as compared to control

# Same assay, conditions: relative to PTH [1-34]; HEK293T cells, BRET
row,β2-arrestin,Sequence
1,+,AVAEIQLMHQRAKWGLDLELRARLREILRDVY [Peptide R2-31]
2,++,"AVAEIQLMHQRAKWIQDARRRAFLHKLIAEIH [LA-PM-FL, reference compound]"
3,+,AVAEIQLMHQRAKWLEELKLKDDLRKILEDVY [Peptide R2-30]
4,+,AVAEIQLMHQRAKWLNELRLKEEMRKILEDVY [Peptide R2-33]
5,+,AVAEIQLMHQRAKWRLEIELLKKLKEILKDVY [Peptide R2-34]

# Same assay, conditions: β-arrestin2 recruitment, fitted curve slope; replicate plates
row,−log10Slope,Sequence
1,−4.789,AVAEIQLMHQRAKWELLEELLKILLELLKEYI [Peptide R2-38]
2,−3.381,AVAEIQLMHQRAKWGLDLELAVKLQEILKDVL [Peptide R2-28]
3,−3.98 and −2.409,AVAEIQLMHQRAKWGLDLELRARLREILRDVY [Peptide R2-31]
4,−2.019 and −6.257,AVAEIQLMHQRAKWGLELELKEKLRKILEDVY [Peptide R2-26]
5,−2.543 and −1.4524,AVAEIQLMHQRAKWLEELKLKDDLRKILEDVY [Peptide R2-30]
6,−5.331 and −2.162 and −8.426,AVAEIQLMHQRAKWLNELRLKEEMRKILEDVY [Peptide R2-33]
7,−3.972 and −3.591 and −3.249,AVAEIQLMHQRAKWRLEIELLKKLKEILKDVY [Peptide R2-34]
8,−0.789 and −3.6425 and −9.383,AVAEIQLMHQRAKWSLREELEKLLKELLKEYI [Peptide R2-44]
9,−3.619,GIAVITLMDLRAYLRAEYELREMLLRLLEEIF [Peptide R2-13]

# Same assay, conditions: β-arrestin2 recruitment, fitted curve slope; replicate plates; listed as R1-81
row,−log10Slope,Sequence
1,−3.14 and −3.448 and −2.307,"AVAEIQLMHQRAKWIQDARRRAFLHKLIAEIH [LA-PM-FL, reference compound]"

# Same assay, conditions: β-arrestin2 recruitment; replicate plates; read-out: −log10EC50 (converted)
row,EC50,Sequence
1,800 nM,AVAEIQLMHQRAKWGLDLELAVKLQEILKDVL [Peptide R2-28]
2,6.58 nM and 7.64 nM,AVAEIQLMHQRAKWGLDLELRARLREILRDVY [Peptide R2-31]
3,16.1 nM and 12.5 nM,AVAEIQLMHQRAKWGLELELKEKLRKILEDVY [Peptide R2-26]
4,3.64 nM and 3.04 nM and 3.08 nM,"AVAEIQLMHQRAKWIQDARRRAFLHKLIAEIH [LA-PM-FL, reference compound]"
5,12.1 nM and 5.02 nM,AVAEIQLMHQRAKWLEELKLKDDLRKILEDVY [Peptide R2-30]
6,7.61 nM and 4.94 nM and 8.19 nM,AVAEIQLMHQRAKWLNELRLKEEMRKILEDVY [Peptide R2-33]
7,4.54 nM and 3.85 nM and 8.05 nM,AVAEIQLMHQRAKWRLEIELLKKLKEILKDVY [Peptide R2-34]

# Target: T1, PTHR1
# Assay: β-arrestin1 recruitment BRET assay in transfected HEK293T cells
# Type: cell-based
# Design: Flag (N); Life Technologies Corporation, CA (arrestin cDNA); host or cells: HEK293T (CRL-3216, ATCC)
# Settings: FIG. 1; PTH 1-34 positive control
# Method: as §1
row,Sequence,β-arrestin1 recruitment compared to PTH 1-34
1,AVAEIQLMHQRAKWELLEELLKILLELLKEYI [Peptide R2-38],higher levels of recruitment of β-arrestin 1

# Same assay, conditions: relative to PTH [1-34]; HEK293T cells, BRET
row,β1-arrestin,Sequence
1,++,AVAEIQLMHQRAKWELLEELLKILLELLKEYI [Peptide R2-38]
2,+,"AVAEIQLMHQRAKWIQDARRRAFLHKLIAEIH [LA-PM-FL, reference compound]"
3,+,GIAVITLMDLRAYLRAEYELREMLLRLLEEIF [Peptide R2-13]

# Same assay, conditions: β-arrestin1 recruitment, fitted curve slope; replicate plates
row,−log10Slope,Sequence
1,−5.307,AVAEIQLMHQRAKWELLEELLKILLELLKEYI [Peptide R2-38]
2,−1.455,AVAEIQLMHQRAKWGLDLELAVKLQEILKDVL [Peptide R2-28]
3,−2.895 and −4.559,AVAEIQLMHQRAKWGLDLELRARLREILRDVY [Peptide R2-31]
4,−2.291 and −7.462,AVAEIQLMHQRAKWGLELELKEKLRKILEDVY [Peptide R2-26]
5,−4.267 and −2.2289,AVAEIQLMHQRAKWLEELKLKDDLRKILEDVY [Peptide R2-30]
6,−2.007 and −4.048 and −4.079,AVAEIQLMHQRAKWLNELRLKEEMRKILEDVY [Peptide R2-33]
7,−3.251 and −3.221 and −4.25,AVAEIQLMHQRAKWRLEIELLKKLKEILKDVY [Peptide R2-34]
8,−3.276 and −2.346 and −3.027,AVAEIQLMHQRAKWSLREELEKLLKELLKEYI [Peptide R2-44]
9,−3.163,GIAVITLMDLRAYLRAEYELREMLLRLLEEIF [Peptide R2-13]

# Same assay, conditions: β-arrestin1 recruitment, fitted curve slope; replicate plates; listed as R1-81
row,−log10Slope,Sequence
1,−3.271 and −2.571 and −2.99,"AVAEIQLMHQRAKWIQDARRRAFLHKLIAEIH [LA-PM-FL, reference compound]"

# Same assay, conditions: β-arrestin1 recruitment; replicate plates; read-out: −log10EC50 (converted)
row,EC50,Sequence
1,0.0179 nM,AVAEIQLMHQRAKWELLEELLKILLELLKEYI [Peptide R2-38]
2,9.96 nM and 2.96 nM,AVAEIQLMHQRAKWGLDLELRARLREILRDVY [Peptide R2-31]
3,27.1 nM and 12.9 nM,AVAEIQLMHQRAKWGLELELKEKLRKILEDVY [Peptide R2-26]
4,1.75 nM and 2.65 nM and 3.53 nM,"AVAEIQLMHQRAKWIQDARRRAFLHKLIAEIH [LA-PM-FL, reference compound]"
5,13.3 nM and 5.21 nM,AVAEIQLMHQRAKWLEELKLKDDLRKILEDVY [Peptide R2-30]
6,5.83 nM and 10.3 nM and 3.98 nM,AVAEIQLMHQRAKWLNELRLKEEMRKILEDVY [Peptide R2-33]
7,2.75 nM and 6.54 nM and 3.31 nM,AVAEIQLMHQRAKWRLEIELLKKLKEILKDVY [Peptide R2-34]
8,2.88 nM and 15 nM and 2.81 nM,AVAEIQLMHQRAKWSLREELEKLLKELLKEYI [Peptide R2-44]
9,1.61 nM,GIAVITLMDLRAYLRAEYELREMLLRLLEEIF [Peptide R2-13]

# From patent publication US12344649B2, “Modulators of parathyroid hormone receptor (PTHR1)” (Flagship Pioneering Innovations VI, LLC, priority 2019, dated 2025)
